19 compounds from ChEMBL document CHEMBL5244230, “Artemisinin-derived hybrids and their anticancer activity” (Eur J Med Chem, 2020) can be followed below.

In one test the test system is DLD-1. Description: Cytotoxicity against human DLD-1 cells assessed as cell growth inhibition measured after 48 hrs by MTT assay. The format is functional. For orientation: Formazan colour is commonly taken as a measure of viable cells.
Test [1] can be described thus: Cytotoxicity against human U87 cells assessed as cell growth inhibition measured after 48 hrs by MTT assay. The format is functional, U-87MG ATCC. To be noted: U-87 MG.
For test [2], the system named is HeLa. Description: Cytotoxicity against human HeLa cells assessed as cell growth inhibition measured after 48 hrs by MTT assay. It is filed as functional.
In a further test the test system is SiHa. Description: Cytotoxicity against human SiHa cells assessed as cell growth inhibition measured after 48 hrs by MTT assay. The format is functional.
In the next test the test system is A 172. Briefly: Cytotoxicity against human A-172 cells assessed as cell growth inhibition measured after 48 hrs by MTT assay. It is filed as functional.
The test system of a further test is B16. Description: Cytotoxicity against mouse B16 cells assessed as cell growth inhibition measured after 48 hrs by MTT assay. The format is functional.
Another test has as its system HT-29. Description: Antiproliferative activity against human HT-29 cells assessed as reduction in cell viability measured for 72 hrs by MTT assay. It is filed as functional, cell-based. To be noted: HT-29, 72 h.
For another test, the system named is A549. Description: Antiproliferative activity against human A549 cells assessed as reduction in cell viability measured for 72 hrs by MTT assay. It is filed as functional, cell-based. To be noted: A549, 72 h.
A further test concerns MDA-MB-231. Briefly: Antiproliferative activity against human MDA-MB-231 cells assessed as reduction in cell viability measured for 72 hrs by MTT assay. It is filed as functional, cell-based. To be noted: MDA-MB-231, 72 h.
Test [3] relates to HeLa. Description: Antiproliferative activity against human HeLa cells assessed as reduction in cell viability measured for 72 hrs by MTT assay. The format is functional, cell-based.
A further test relates to NCI-H460. Briefly: Antiproliferative activity against human NCI-H460 cells assessed as reduction in cell viability measured for 72 hrs by MTT assay. It is filed as functional, cell-based. To be noted: NCI-H460, 72 h.

By GI50 is commonly meant the concentration that inhibits growth by half. By IC50 is commonly meant the point on the concentration scale where inhibition reaches its midpoint.

Consider `C[C@@H]1[C@@H](n2cc(-c3ccccc3)nn2)O[C@@H]2O[C@@]3(C)CC[C@H]4[C@H](C)CC[C@@H]1[C@@]24OO3`, for which the concentration for 50% growth inhibition (GI50) (in the test with DLD-1; in [1]; in the test on HeLa [2]; with SiHa; with A 172; with B16) was 30 nM throughout.
In the case of `COc1ccc(-c2cn([C@@H]3O[C@@H]4O[C@@]5(C)CC[C@H]6[C@H](C)CC[C@@H]([C@H]3C)[C@@]46OO5)nn2)cc1`, the GI50 (with DLD-1; in [1]; in the test with HeLa [2]; in the test on SiHa; with A 172; in the test with B16) was 50 nM in each case.
As for `CCCCCc1ccc(-c2cn([C@@H]3O[C@@H]4O[C@@]5(C)CC[C@H]6[C@H](C)CC[C@@H]([C@H]3C)[C@@]46OO5)nn2)cc1`, the GI50 (in the test on DLD-1; in test [1]; in the test with HeLa [2]; in the test on SiHa; in the test on A 172; with B16) was 50 nM in each case.
`C[C@H]1[C@H](n2cc(-c3ccccc3)nn2)O[C@@H]2O[C@@]3(C)CC[C@H]4[C@H](C)CC[C@@H]1[C@@]24OO3`: the GI50 (in the test with DLD-1; in [1]; with HeLa [2]; with SiHa; with A 172; in the test with B16) was 50 nM in each case.
On to `C[C@H]1[C@H](n2cc(-c3cc(F)cc(F)c3)nn2)O[C@@H]2O[C@@]3(C)CC[C@H]4[C@H](C)CC[C@@H]1[C@@]24OO3`, for which the 50% growth inhibitory concentration (GI50) (in the test with DLD-1; in test [1]; with HeLa [2]; in the test on SiHa; in the test with A 172; in the test with B16) was 50 nM each time.
`Cc1ccc(-c2cn(C3O[C@@H]4O[C@@]5(C)CC[C@H]6[C@H](C)CC[C@@H]([C@H]3C)[C@@]46OO5)nn2)cc1` (stereo not given in full): the GI50 (with DLD-1; in [1]; in the test on HeLa [2]; in the test with SiHa; with A 172; in the test with B16) was 50 nM in each case.
For the compound `C[C@@H]1CC[C@H]2[C@@H](C)C(n3cc(-c4ccc(F)cc4)nn3)O[C@@H]3O[C@@]4(C)CC[C@@H]1[C@]32OO4` (stereo not given in full), the GI50 (in the test on DLD-1; in [1]; in the test on HeLa [2]; with SiHa; in the test on A 172; in the test on B16) was 50 nM in each case.
For the compound `C[C@H]1[C@H](n2cc(-c3ccccc3C(F)(F)F)nn2)O[C@@H]2O[C@@]3(C)CC[C@H]4[C@H](C)CC[C@@H]1[C@@]24OO3`, the GI50 (in the test with DLD-1; in [1]; in the test with HeLa [2]; with SiHa; in the test with A 172; in the test with B16) was 50 nM in each case.
As for `C[C@H]1[C@@H](NC(=O)COCc2ccc(/C=C/C(=O)c3ccc(Cl)cc3)cc2)O[C@@H]2O[C@@]3(C)CC[C@H]4[C@H](C)CC[C@@H]1[C@@]24OO3`, the IC50 in the test on HT-29, in the test on A549, in the test on MDA-MB-231, with HeLa [3] and in the test with NCI-H460 was 1700 nM each time.
In the case of `COc1cccc(/C=C/C(=O)c2ccc(COCC(=O)N[C@@H]3O[C@@H]4O[C@@]5(C)CC[C@H]6[C@H](C)CC[C@@H]([C@H]3C)[C@@]46OO5)cc2)c1`, the IC50 with HT-29, with A549, in the test on MDA-MB-231, in the test with HeLa [3] and in the test with NCI-H460 was 100 nM each time.
Take `C[C@H]1[C@@H](NC(=O)COCc2ccc(/C=C/C(=O)c3ccccc3)cc2)O[C@@H]2O[C@@]3(C)CC[C@H]4[C@H](C)CC[C@@H]1[C@@]24OO3`: the IC50 in the test on HT-29, in the test on A549, in the test on MDA-MB-231, in the test on HeLa [3] and in the test with NCI-H460 was 1700 nM throughout.
In the case of `C[C@H]1[C@H](NC(=O)COCc2ccc(C(=O)/C=C/c3c(Cl)cccc3Cl)cc2)O[C@@H]2O[C@@]3(C)CC[C@H]4[C@H](C)CC[C@@H]1[C@@]24OO3`, the IC50 in the test with HT-29, in the test on A549, in the test with MDA-MB-231, in the test with HeLa [3] and with NCI-H460 was 100 nM each time.
Consider `C[C@H]1[C@@H](NC(=O)COCc2ccc(/C=C/C(=O)c3ccc(F)cc3)cc2)O[C@@H]2O[C@@]3(C)CC[C@H]4[C@H](C)CC[C@@H]1[C@@]24OO3`, for which the IC50 in the test with HT-29, in the test with A549, with MDA-MB-231, in the test on HeLa [3] and with NCI-H460 was 1700 nM each time.
As for `Cc1ccc(-c2cn([C@H]3O[C@@H]4O[C@@]5(C)CC[C@H]6[C@H](C)CC[C@@H]([C@@H]3C)[C@@]46OO5)nn2)cc1`, the GI50 (in the test on DLD-1; in test [1]; with HeLa [2]; in the test on SiHa; in the test with A 172; in the test with B16) was 30 nM each time.
As to `C[C@H]1[C@@H](NC(=O)COCc2ccc(/C=C/C(=O)c3ccc(Cl)c(Cl)c3)cc2)O[C@@H]2O[C@@]3(C)CC[C@H]4[C@H](C)CC[C@@H]1[C@@]24OO3`, the IC50 in the test on HT-29, in the test on A549, in the test on MDA-MB-231, in the test with HeLa [3] and in the test with NCI-H460 was 1700 nM throughout.
Regarding `C[C@H]1[C@@H](NC(=O)COCc2ccc(/C=C/C(=O)c3cccc(Cl)c3)cc2)O[C@@H]2O[C@@]3(C)CC[C@H]4[C@H](C)CC[C@@H]1[C@@]24OO3`, the IC50 with HT-29, with A549, in the test on MDA-MB-231, with HeLa [3] and in the test with NCI-H460 was 1700 nM in each case.
Consider `C[C@@H]1CC[C@H]2[C@@H](C)C(n3cc(-c4cccc(Cl)c4)nn3)O[C@@H]3O[C@@]4(C)CC[C@@H]1[C@]32OO4` (stereo not given in full), for which the GI50 (with DLD-1; in test [1]; in the test with HeLa [2]; in the test with SiHa; with A 172; with B16) was 50 nM throughout.
With `C[C@H]1[C@@H](NC(=O)COCc2ccc(/C=C/C(=O)c3ccc(C(F)(F)F)cc3)cc2)O[C@@H]2O[C@@]3(C)CC[C@H]4[C@H](C)CC[C@@H]1[C@@]24OO3`, the IC50 in the test with HT-29, in the test with A549, in the test with MDA-MB-231, in the test on HeLa [3] and in the test on NCI-H460 was 1700 nM each time.
In the case of `COc1cccc(C(=O)/C=C/c2ccc(COCC(=O)N[C@H]3O[C@@H]4O[C@@]5(C)CC[C@H]6[C@H](C)CC[C@@H]([C@H]3C)[C@@]46OO5)cc2)c1`, the IC50 with HT-29, in the test on A549, with MDA-MB-231, with HeLa [3] and with NCI-H460 was 1700 nM in each case.
